Measured values from US8946247B2, “Quinazoline carboxamide azetidines” (Merck Patent GmbH, priority 2010, dated 2015).

Tests used:
[1] = tested on: pS6 MDA-MB-468; assay: Cellular Activity Assay (phospho-S6 in MDA-MB-468 cells); type: cell-based; details: Homo sapiens, 2 hr compound incubation, percent pS6-positive cells
Description: MDA-MB-468 cells were grown in DMEM containing glutamine supplemented with 10% Fetal Bovine Serum (FBS) and 1× antibiotics. Cells were maintained by splitting 1:3 twice a week.
For the assay, cells were plated the evening before at a density of 4000 cells per well in black polyD lysine coated 384 well plates. Cells were incubated overnight (16 to 20 hours) in growth media. Compounds at an appropriate concentration were added to the wells and incubated for 2 hr. Controls included: i) no primary, ii) rabbit isotype, iii) propidium iodide (red) only and iv) anti-phospho-S6 antibody alone (green only). Cells were then fixed in 4% paraformaldehyde for 15-20 minutes at room temperature, then washed 3×80 ul with PBS.
50 ul 10% normal goat serum (NGS) with 0.2% triton X 100 in PBS were added and incubated for 30 to 60 minutes at room temperature. Anti-phospho-S6 antibody was diluted 1:800 2% with NGS in 0.2% TritonX-100 and 30 ul added to appropriate wells. The wells were incubated overnight at 4 degrees Celsius.
Then the wells were washed with 3×80 uL PBS. The secondary green fluorescence labeled antibody (Alexa Fluor® 488 F(ab′)2 fragment goat Anti-rabbit IgG (H+L)), was diluted 1:1500 in 2% NGS with 0.2% TritonX-100, and 30 ul were added to the appropriate wells which were then incubated in the dark at room temperature for 60 minutes. Then they were washed with 4×80 ul PBS. Propidium iodide (1.5 mM stock) was diluted 1:1000 in PBS, and 50 ul were added to the appropriate wells and incubated for 30 minutes at room temperature in the dark. Propidium iodide was not washed out. Plates were read on the Acumen Explorer.
Red and green cell populations were determined using controls. The number of green cells (pS6) and total number of cells (red) were then counted and the percentage of green cells was calculated. Percent positive cell data was plotted on a log scale against concentration of compounds and IC50 values were calculated from dose response curves.

[2] = biological target: T1, P70S6K (T412E mutant) (Homo sapiens, UniProt P23443, T412E); assay: p70S6K Enzyme Assay; type: biochemical; details: 24 μM ATP, 90 min at 25° C., Caliper mobility shift
T1 construct: purchased Millipore
T1 sequence (P23443 1-421 T412E limits assumed): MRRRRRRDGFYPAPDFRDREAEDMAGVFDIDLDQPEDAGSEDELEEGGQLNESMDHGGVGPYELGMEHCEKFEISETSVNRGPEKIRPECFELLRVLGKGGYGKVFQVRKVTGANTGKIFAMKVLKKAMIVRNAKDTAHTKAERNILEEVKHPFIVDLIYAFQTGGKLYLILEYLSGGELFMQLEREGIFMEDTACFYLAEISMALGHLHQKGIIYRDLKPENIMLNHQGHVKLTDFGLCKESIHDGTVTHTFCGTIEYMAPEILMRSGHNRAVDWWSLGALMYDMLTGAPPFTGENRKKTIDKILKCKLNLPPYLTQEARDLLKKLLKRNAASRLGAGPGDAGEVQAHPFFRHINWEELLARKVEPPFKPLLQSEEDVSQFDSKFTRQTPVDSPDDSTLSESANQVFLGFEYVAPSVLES
Description: p70S6K inhibitor compounds were diluted and plated in 96 well plates. A reaction mixture including the following components were then added to the compound plate to initiate the enzyme reaction; P70S6K (3 nM, T412E mutant, Millipore) was mixed with 24 μM ATP in an assay buffer containing 100 mM Hepes (pH 7.5), 5 mM MgCl2, 1 mM DTT, 0.015% Brij and 1 μM of the substrate peptide FITC-AHA-AKRRRLSSLRA-OH (derived from the S6 ribosomal protein sequence, FITC=fluorescein isothiocyanate, AHA=6-aminohexanoic acid). The reaction was incubated for 90 min at 25° C., before the addition of 10 mM EDTA to stop the reaction. The proportion of substrate and product (phosphorylated) peptide was analysed on a Caliper Life Sciences Lab Chip 3000, using a pressure of −1.4 psi, and upstream and downstream voltages of −3000 and −700 respectively. Product peaks were resolved before substrate peaks on the resulting chromatograms.
To assess the inhibitory potential of the compounds, IC50-values were determined, as shown in Chemical Synthesis section above.

[3] = biological target: T2, Akt1 (Homo sapiens, UniProt P31749); assay: AKT/PKB Kinase Assay; type: biochemical; details: His-AKT (Full Length), 160 uM ATP, 90 min at 25 C
T2 construct: 0.1 ng/ul His-AKT (Full Length), (Invitrogen, Part #P2999, Lot #641228C); His; purchased Invitrogen P2999
T2 sequence (P31749 whole entry): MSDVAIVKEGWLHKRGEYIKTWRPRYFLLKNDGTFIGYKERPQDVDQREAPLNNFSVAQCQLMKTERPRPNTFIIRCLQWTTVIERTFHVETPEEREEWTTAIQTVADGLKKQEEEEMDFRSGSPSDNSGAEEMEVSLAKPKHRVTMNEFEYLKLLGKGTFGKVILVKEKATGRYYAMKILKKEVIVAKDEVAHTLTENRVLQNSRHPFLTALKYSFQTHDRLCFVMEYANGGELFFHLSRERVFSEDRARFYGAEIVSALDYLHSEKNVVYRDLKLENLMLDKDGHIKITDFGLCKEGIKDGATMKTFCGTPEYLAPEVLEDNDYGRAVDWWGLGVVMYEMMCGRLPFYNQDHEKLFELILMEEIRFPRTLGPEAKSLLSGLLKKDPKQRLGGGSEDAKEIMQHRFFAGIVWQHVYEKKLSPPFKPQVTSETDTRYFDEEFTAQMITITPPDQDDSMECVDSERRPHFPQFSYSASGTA
Description: In order to measure AKT inhibition in the Caliper Life Sciences LC3000, a TTP Mosquito liquid handling instrument was used to place 125 nl of the appropriate concentration of inhibitor in 100% DMSO (for a dose response curve calculation) into each well of a 384-well plate. To this reaction components were added to a final volume of 12.5 ul: • 0.1 ng/ul His-AKT (Full Length), (Invitrogen, Part #P2999, Lot #641228C) • 160 uM ATP (Fluke, 02055) • 1 mM DTT (Sigma, D0632) • 1 mM MgCl2 (Sigma, M1028) • 1 uM substrate peptide (sequence FITC-AHA-GRPRTSSFAEG-NH2), synthesized by Tufts Peptide Synthesis service. • 100 mM HEPES pH 7.5 (Calbiochem, 391338) • 0.015% Brij-35 (Sigma, B4184)
(§1) The reaction was incubated for 90 min at 25 C, and then stopped by the addition of 70 ul of Stop buffer (100 mM HEPES pH 7.5, 0.015% Brij-35, 10 mM EDTA (Sigma, E7889)).
The plate was read on a Caliper LC 3000 in an Off-Chip mobility shift assay format, using the following parameters for a 12-sipper chip: screening pressure −2.3 psi, upstream voltage −500, and downstream voltage −3000.
These conditions cause unphosphorylated substrate and phosphorylated product peptide to resolve as separate peaks allowing direct measurement of percentage of conversion of substrate to product. The percent conversion was plotted against concentration of inhibitor to produce a sigmoidal dose response curve, from which an IC50 was calculated.

[4] = biological target: T3, Aurora B (Homo sapiens, UniProt Q96GD4); assay: Aurora B Kinase Assay; type: biochemical; details: for IC50: GST-Aurora B (1-344), 10 uM ATP, 90 min at 25 C
T3 construct: GST-Aurora B (1-344 amino acids); GST (N); purchased Carna Biosciences 05-102
T3 sequence (Q96GD4 whole entry, the tested form may be a part): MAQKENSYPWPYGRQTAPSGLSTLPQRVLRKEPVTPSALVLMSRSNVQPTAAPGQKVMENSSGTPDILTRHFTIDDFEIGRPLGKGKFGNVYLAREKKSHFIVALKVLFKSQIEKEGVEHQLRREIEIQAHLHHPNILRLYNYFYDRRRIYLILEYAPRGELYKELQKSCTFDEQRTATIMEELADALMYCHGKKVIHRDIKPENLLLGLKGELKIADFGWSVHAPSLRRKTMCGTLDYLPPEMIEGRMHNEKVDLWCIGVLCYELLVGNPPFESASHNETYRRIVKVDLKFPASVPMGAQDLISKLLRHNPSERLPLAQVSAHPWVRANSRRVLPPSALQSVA
T3 sequence (Q9NQS7 803-918 partner limits assumed): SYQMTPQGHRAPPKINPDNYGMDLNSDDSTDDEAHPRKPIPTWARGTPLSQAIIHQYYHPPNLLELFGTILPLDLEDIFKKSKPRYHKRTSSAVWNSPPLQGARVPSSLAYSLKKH
Description: To measure inhibitor activity of Aurora B inhibitors in the Caliper Life Sciences LC3000, a TTP Mosquito liquid handling instrument was used to place 0.25 ul of the appropriate concentration of inhibitor in 100% DMSO (for a dose response curve calculation) into each well of a 384-well plate. To this reaction components was added to a final volume of 25 ul: • 0.1 ng/ul GST-Aurora B (1-344 amino acids), (Carna Biosciences 05-102. N-terminal GST fusion with His tagged INCEP, accession number Q96GD4). • 10 uM ATP (Fluka, 02055) • 1 mM DTT (Sigma, D0632) • 1 mM MgCl2 (Sigma, M1028) • 1 uM substrate peptide (sequence FITC-LRRASLG-(CONH2), synthesized by Tufts Peptide Synthesis service. • 100 mM HEPES pH 7.5 (Calbiochem, 391338) • 0.015% Brij-35 (Sigma, B4184)
as §1
The plate was read on a Caliper LC 3000 in an Off-Chip mobility shift assay format, using the following parameters for a 12-sipper chip: screening pressure −1.8 psi, upstream voltage −2700, downstream voltage −1000. These conditions caused unphosphorylated substrate and phosphorylated product peptide to resolve as separate peaks allowing direct measurement of percentage of conversion of substrate to product. The percent conversion was plotted against concentration of inhibitor to produce a sigmoidal dose response curve, from which an IC50 was calculated using XLFit for Microsoft Excel.

SMILES | IC50 [1] [nM] | IC50 [2] [nM] | IC50 [3] [nM] | IC50 [4] [nM] | Aurora B/p70S6K inhibitory ratio ([4]; ratio of Aurora B to p70S6K inhibition)
N#Cc1cc([C@@H](CN2CCC2)Nc2ncnc3c(C(N)=O)cccc23)ccc1F [Example 39, 4-[(S)-2-Azetidin-1-yl-1-(3-cyano-4-fluorophenyl)-ethylamino]-quinazoline-8-carboxylic acid amide] | 246 | 3.3 | 83 | 650 | –
NC(=O)c1cccc2c(N[C@H](CN3CC(F)C3)c3ccc(F)c(C(F)(F)F)c3)ncnc12 [Example 49, 4-[(S)-2-(3-Fluoro-azetidin-1-yl)-1-(4-fluoro-3-trifluoromethyl-phenyl)-ethylamino]-quinazoline-8-carboxylic acid amide] | 116 | 5 | 16 | 540 | –
NC(=O)c1cccc2c(N[C@H](CN3CCC3)c3cccc(F)c3)ncnc12 [Example 1, 4-[(S)-2-Azetidin-1-yl-1-(3-fluorophenyl)-ethylamino]-quinazoline-8-carboxylic acid amide] | 70 | 5.6 | 22 | 45 | 28
NC(=O)c1cccc2c(N[C@H](CN3CCC3)c3c(F)cccc3F)ncnc12 [Example 16, 4-[(S)-2-Azetidin-1-yl-1-(2,6-difluorophenyl)-ethylamino]-quinazoline-8-carboxylic acid amide] | 183 | 5.4 | 91 | 170 | –
NC(=O)c1cccc2c(N[C@H](CN3CCC3)c3ccc(F)cc3Cl)ncnc12 [Example 24, 4-[(S)-2-Azetidin-1-yl-1-(2-chloro-4-fluoro-phenyl)-ethylamino]-quinazoline-8-carboxylic acid amide] | 1030 | 8.7 | 77 | 107 | –
COc1c(F)cc([C@@H](CN2CCC2)Nc2ncnc3c(C(N)=O)cccc23)cc1F [Example 38, 4-[(S)-2-Azetidin-1-yl-1-(3,5-difluoro-4-methoxyphenyl)-ethylamino]-quinazoline-8-carboxylic acid amide] | 113 | 1.8 | 140 | 280 | –
NC(=O)c1cc(F)cc2c(N[C@H](CN3CCC3)c3ccc(F)c(C(F)(F)F)c3)ncnc12 [Example 45, 4-[(S)-2-Azetidin-1-yl-1-(4-fluoro-3-trifluoromethyl-phenyl)-ethylamino]-6-fluoro-quinazoline-8-carboxylic acid amide] | 33 | 1.5 | 5.9 | 290 | –
NC(=O)c1cccc2c(N[C@H](CN3CCC3)c3cc(F)ccc3F)ncnc12 [Example 26, 4-[(S)-2-Azetidin-1-yl-1-(2,5-di-fluoro-phenyl)-ethylamino]-quinazoline-8-carboxylic acid amide] | 359 | 5.3 | 98 | 230 | –
COc1cc(C(N)=O)c2ncnc(N[C@H](CN3CCC3)c3ccc(F)c(C(F)(F)F)c3)c2c1 [Example 47, 4-[(S)-2-Azetidin-1-yl-1-(4-fluoro-3-trifluoromethyl-phenyl)-ethylamino]-6-methoxy-quinazoline-8-carboxylic acid amide] | 27 | 2.2 | 1.5 | 200 | –
NC(=O)c1cccc2c(N[C@H](CN3CCC3)c3cccc(Cl)c3)ncnc12 [Example 2, 4-[(S)-2-Azetidin-1-yl-1-(3-chlorophenyl)-ethylamino]-quinazoline-8-carboxylic acid amide] | 16 | 1.1 | 10 | 47 | –
NC(=O)c1cccc2c(N[C@H](CN3CCC3)c3ccc(F)c(C(F)F)c3)ncnc12 [Example 44, 4-[(S)-2-Azetidin-1-yl-1-(3-difluoromethyl-4-fluoro-phenyl)-ethylamino]-quinazoline-8-carboxylic acid amide] | 41 | 1.7 | 7.3 | 75 | –
